Assay results taken from patent publication US8440842B2, “Antimicrobial compounds, their synthesis and their use for treatment of mammalian infections” (Leibniz-Institut fuer Naturstoff-Forschung und …, priority 2007, dated 2013).
Converted amounts (≈) assume the structure as drawn. Like-named read-outs stand apart in the source and are kept apart here.

Legend:
M. fortuitum B = experiment: MIC by broth micro dilution method in Mueller-Hinton broth (NCCLS); type: cell-based; conditions: Mycolicibacterium fortuitum, read-out: M. fortuitum MIC
Method: (§1) Determination of the in vitro inhibitory activity of the compounds of the invention against mycobacteria.
(§2) The antibacterial activities of the compounds against Mycobacterium smegmatis SG 987, M. aurum SB66, M. vaccae IMET 10670 and M. fortuitum B were tested by determination of minimal inhibitory concentrations (MIC) by the broth micro dilution method in Mueller-Hinton broth (Difco) according to the NCCLS guidelines [National Committee for Clinical Laboratory Standards: Methods for dilution antimicrobial susceptibility tests for bacteria that grow aerobically; 5th Ed.; Villanova, Ed.; Approved standard Document M7-A5. NCCLS, (2000)].

[1] = test system: Mycobacterium smegmatis SG 987; experiment: as above; type: cell-based; conditions: Mycolicibacterium smegmatis
Method: as §1, §2

M. vaccae IMET 10670 = experiment: as above; type: cell-based; conditions: Mycolicibacterium vaccae
Method: as §1, §2

M. tuberculosis H37Rv [2] = experiment: resazurin reduction assay (MIC96), Alamar Blue method; type: cell-based; conditions: Mycobacterium tuberculosis, read-out: minimal inhibitory concentrations (MIC) M. tuberculosis H37Rv
Method: Activity against M. tuberculosis H37Rv was determined by the resazurin reduction assay (MIC96) too. The method was described in detail in: P. Quillardet, O. Huisman, R. D'Ari, M. Hofnung, Proc. Natl. Acad. Sci. USA, 1982, 79, 5971-5; J. C. Palomino, A. Martin, M. Camacho, H. Guerra, J. Swings, F. Portaels, Antimicrob. Agents Chemother., 2002, 46, 2720-2.

M. tuberculosis H37Rv [3] = experiment: MIC and MBC, classical method (liquid Shkolnikova medium, Lowenstein-Jensen medium); type: cell-based; conditions: Mycobacterium tuberculosis; for MIC: 336 h
[4] = broth micro dilution, Mueller-Hinton broth
[5] = SG987, broth micro dilution, Mueller-Hinton broth, read-out: M. smegmatis MIC
[6] = IMET10670, broth micro dilution, Mueller-Hinton broth, read-out: M. vaccae MIC
[7] = strain H37Rv, liquid Shkolnikova medium, 14 days at 37° C., read-out: MIC
[8] = strain H37Rv, solid drug free Lowenstein-Jensen medium, 21-28 days, read-out: MBC

| SMILES | MIC (M. fortuitum B) [ng/mL] | MIC ([1]; SG987, read-out: M. smegmatis MIC) [ng/mL] | MIC (M. vaccae IMET 10670; IMET10670, read-out: M. vaccae MIC) [ng/mL] | melting point [°C] | MIC (M. fortuitum B; [4]) [ng/mL] | MIC [1, 5] [ng/mL] | MIC (M. vaccae IMET 10670; [6]) [ng/mL] | MIC (M. tuberculosis H37Rv [2]) [µg/mL] | MBC (M. tuberculosis H37Rv [3]; H37RV) [µg/mL] | MIC (M. tuberculosis H37Rv [3]; H37RV) [µg/mL] | MIC (M. tuberculosis H37Rv [3]; [7]) [µg/mL] | MBC (M. tuberculosis H37Rv [3]; [8]) [µg/mL] |
| --- | --- | --- | --- | --- | --- | --- | --- | --- | --- | --- | --- | --- |
| O=c1nc(N2CCN(c3ccc(Cl)cc3)CC2)sc2c([N+](=O)[O-])cc([N+](=O)[O-])cc12 [Compound 1, 2-[4-(4-Chlorophenyl)piperazin-1-yl]-6,8-dinitro-4H-1,3-benzothiazin-4-one] | 780 (≈ 1740 nM) | 780 (≈ 1740 nM) | 6.2 (≈ 13.8 nM) | 279 to 281 | – | – | – | – | – | – | – | – |
| Cc1ccc(Cl)cc1N1CCN(c2nc(=O)c3cc(C(F)(F)F)cc([N+](=O)[O-])c3s2)CC1 [Compound 2, 2-[4-(5-chloro-2-methylphenyl)piperazin-1-yl]-8-nitro-6-(trifluoromethyl)-4H-1,3-benzothiazin-4-one] | – | – | – | 158 to 161 | 31 (≈ 63.9 nM) | 50 (≈ 103 nM) | 8 (≈ 16.5 nM) | – | – | – | – | – |
| O=c1nc(N2CCN(c3cccc(C(F)(F)F)c3)CC2)sc2c([N+](=O)[O-])cc(C(F)(F)F)cc12 [Compound 3, 8-Nitro-6-(trifluoromethyl)-2-{4-[3-(trifluoromethyl)phenyl]piperazin-1-yl}-4H-1,3-benzothiazin-4-one] | – | – | – | 201 to 203 | 3.1 (≈ 6.15 nM) | 40 (≈ 79.3 nM) | 3.1 (≈ 6.15 nM) | – | – | – | – | – |
| CCN(Cc1ccccc1)c1nc(=O)c2cc(C(F)(F)F)cc([N+](=O)[O-])c2s1 [Compound 4, 2-[Benzyl(ethyl)amino]-8-nitro-6-(trifluoromethyl)-4H-1,3-benzothiazin-4-one] | – | – | – | 94 to 97 | 6.2 (≈ 15.1 nM) | 6.2 (≈ 15.1 nM) | 0.8 (≈ 1.95 nM) | 0.002 (≈ 4.89 nM) | – | – | – | – |
| CN(Cc1ccccc1)c1nc(=O)c2cc(C(F)(F)F)cc([N+](=O)[O-])c2s1 [Compound 5, 2-[Benzyl(methyl)amino]-8-nitro-6-(trifluoromethyl)-4H-1,3-benzothiazin-4-one] | – | – | – | 120 to 124 | 15.6 (≈ 39.5 nM) | 15.6 (≈ 39.5 nM) | 0.5 (≈ 1.26 nM) | 0.003 (≈ 7.59 nM) | 3.12 (≈ 7890 nM) | 1.56 (≈ 3950 nM) | – | – |
| O=c1nc(N2CCN(c3ccccc3F)CC2)sc2c([N+](=O)[O-])cc(C(F)(F)F)cc12 [Compound 6, 2-[4-(2-Fluorophenyl)piperazin-1-yl]-8-nitro-6-(trifluoromethyl)-4H-1,3-benzothiazin-4-one] | – | – | – | 164 to 168 | 5 (≈ 11 nM) | 5 (≈ 11 nM) | 5 (≈ 11 nM) | – | – | – | – | – |
| O=c1nc(N2CCN(Cc3ccccc3)CC2)sc2c([N+](=O)[O-])cc(C(F)(F)F)cc12 [Compound 7, 2-(4-Benzylpiperazin-1-yl)-8-nitro-6-(trifluoromethyl)-4H-1,3-benzothiazin-4-one] | – | – | – | 161 to 163 | 50 (≈ 111 nM) | 50 (≈ 111 nM) | 50 (≈ 111 nM) | – | – | – | – | – |
| O=c1nc(NCc2ccccc2)sc2c([N+](=O)[O-])cc(C(F)(F)F)cc12 [Compound 8, 2-(Benzylamino)-8-nitro-6-(trifluoromethyl)-4H-1,3-benzothiazin-4-one] | – | – | – | 192 to 194 | 0.78 (≈ 2.05 nM) | 0.78 (≈ 2.05 nM) | < 0.0121 | 0.05 (≈ 131 nM) | 1.56 (≈ 4090 nM) | 1.56 (≈ 4090 nM) | – | – |
| C[C@H](c1ccccc1)N(C)c1nc(=O)c2cc(C(F)(F)F)cc([N+](=O)[O-])c2s1 [Compound 9, 2-{Methyl[(1R)-1-phenylethyl]amino}-8-nitro-6-(trifluoromethyl)-4H-1,3-benzothiazin-4-one] | – | – | – | 110 to 113 | < 0.0121 | < 0.0121 | < 0.0121 | 0.0004 (≈ 0.977 nM) | – | – | – | – |
| CN(Cc1ccccc1)c1nc(=O)c2cc(Cl)cc([N+](=O)[O-])c2s1 [Compound 10, 2-[Benzyl(methyl)amino]-6-chloro-8-nitro-4H-1,3-benzothiazin-4-one] | – | – | – | 138 to 141 | 1.56 (≈ 4.31 nM) | 6.2 (≈ 17.1 nM) | 0.31 (≈ 0.857 nM) | 0.025 (≈ 69.1 nM) | – | – | < 0.39 | 0.78 (≈ 2160 nM) |
| NNC(=O)c1ccncc1 [Isoniazid (INH), Isoniazid, reference compound] | – | – | – | – | – | – | – | 0.125 (≈ 911 nM) | – | – | 0.78 (≈ 5690 nM) | 1.56 (≈ 11400 nM) |
